Data: patent US6773893B1, “Human ABC1 promoter and assays based thereon” (The Trustees of Columbia University in the City of New York, priority 2000, dated 2004)
“Also recorded” adds a separate entry of the source.

Columns and labels:
[1] = system: hABC1 mRNA in THP-1 macrophages; test: Northern blot of ABC1 mRNA in THP-1 macrophages; assay type: cell-based, human; set-up: dose or concentration left out as unconfirmed; settings: 24 h, vs ethanol
Description: (§1) The cell lines were purchased from ATCC (Rockville, Md., USA). The murine RAW 264.7, African green monkey CV-1, and human 293 or HepG2 cell lines were maintained in Dulbecco's modified Eagle's medium (DMEM) with 10% Fetal Bovine Serum (FBS), 100 U/ml penicillin and […] streptomycin. THP-1 cells were maintained in RPMI-1640 containing L-glutamine, 10% heat inactivated FBS, 100 U/ml penicillin and […] streptomycin supplemented with 0.5 mM B-mercaptoethanol. Confluent cells were differentiated with 0.2 mM phorbol 12-myristate 13-acetate (Sigma Chemical Co., St Louis, Mo., USA) in ethanol during 72 hours. Thioglycollate-elicited peritoneal macrophages were isolated from C57 Bl/6 mice as described (31).

[2] = system: LXR/hRXRα binding site of the CETP promoter; test: Luciferase reporter with 3 copies of the LXR responsive element of the CETP promoter in 293 cells; assay type: cell-based, human; settings: for increase in luciferase activity: absence of transfected receptors
Description: (§2) Transfections were performed in 24-wells plates with Lipofectamine reagent (transactivation experiments in CV-1 and 293 cells, FIG. 6-7) or Lipofectamine-Plus reagent (Basal activation experiments in RAW 264.7, FIG. 5) according to the manufacturer's instructions (Life Technologies, Grand Island, N.Y., USA). For basal activation experiments a total of […] of reporter DNA and 0.05 mg of PRL-CMV(Renilla) (Promega Corp., Madison, Wis., USA) per well were used. For transactivation studies we used, per well, 0.025 mg of PRL-CMV, 0.2 mg of reporter DNA and 0.1 mg of each receptors (CMX-hRXRα, CMX-hLXRα, CMV-mLXRβ) or 0.2 mg of pcDNA3. The transfected cells were cultured in lipoprotein deficient serum (LPDS) medium in the presence of […] of 22(R)-hydroxycholesterol (22(R)-HCh), 25-hydroxycholesterol (25-HCh) or 7-ketocholesterol (7-KCh), […] 9-cis retinoic acid (9CRA) (Sigma Chemical Co., St Louis, Mo., USA) or ethanol alone for 24 hours. The luciferase activities were measured using Promega Dual Luciferase assay system. Reporter plasmid used to analyse the activity of hABC1 promoter was constructed by subcloning a 1029 bp PCR fragment of hABC1 promoter (−928 bp +101 bp) into pGL3-Luc basic vector (Promega). […] A shorter promoter (−469 bp to +101 bp) was generated by digestion of this plasmid with Sac1. Where shown, error bars represent the standard deviation.

hABC1 promoter [3] = test: hABC1 promoter-luciferase reporter in RAW 264.7 cells; assay type: cell-based, mouse; settings: for hABC1 promoter activity compared to basal conditions: 10 μM, Firefly/Renilla luciferase ratio vs ethanol; for hABC1 promoter induction (summary statement): RAW macrophages, upstream promoter (-469 bp)
Description: In FIG. 5A a fragment of the hABC1 promoter ([…] to +101 bp) was linked to Firefly luciferase reporter gene. The resulting plasmid was cotransfected with a control reporter plasmid (Renilla luciferase) in the mouse macrophage-like RAW 264.7 cells. Four independent transfections experiments (each in triplicates) were performed. The results are expressed as a ratio between the Firefly and Renilla luciferase activities. Cells were treated with vehicle or 22(R)-Hch (10 μM), 9CRA (10 μM) and 22(R)-Hch (10 μM)+9CRA (10 μM), 24 hours in FBS medium complemented with 10% LPDS. […] Two independent experiments in triplicate were performed according to the protocol described in (a), using a shorter promoter: […] +101 pb. […] The same experiments as (a) were performed using 22(R)-Hch (10 μM), 25-Hch (10 μM), 7K-Ch (10 μM) and 9CRA (10 μM). Three to four independent experiments in duplicate or triplicate were performed. Mann Whitney tests were mean to analyze the difference between “Ethanol” and “Treatment”. In these Figures, ***=P<0.001,*=P<0.05.
as §1, §2

hABC1 promoter [4] = test: hABC1 promoter (-469 bp +101 bp) luciferase reporter in 293 cells with or without LXR/RXR; assay type: cell-based, human; settings: for upregulation of the hABC1 promoter: 293 cells without transfected LXR/hRXR, 10 μM, 24 h
Description: as §1, §2

LXR = settings: from cited references; cited from earlier work
hABC1 promoter [5] = test: Transactivation of the hABC1 promoter by LXR/RXR in CV-1 cells; assay type: cell-based, human
Description: as §2, with “The cell lines were purchased from ATCC (Rockville, Md., USA). The murine RAW 264.7, African green monkey CV-1, and human 293 or HepG2 cell lines were maintained in Dulbecco's modified Eagle's medium (DMEM) with 10% Fetal Bovine Serum (FBS), 100 U/ml penicillin and […] streptomycin. THP-1 cells were maintained in RPMI-1640 containing L-glutamine, 10% heat inactivated FBS, 100 U/ml penicillin and […] streptomycin supplemented with 0.5 mM B-mercaptoethanol. Confluent cells were differentiated with 0.2 mM phorbol 12-myristate 13-acetate (Sigma Chemical Co., St Louis, Mo., USA) in ethanol during 72 hours. Thioglycollate-elicited peritoneal macrophages were isolated from C57 Bl/6 mice as described (31). Transfections” for “Transfections”

SF1 = SF1 (Homo sapiens, UniProt Q13285); settings: from cited references; cited from earlier work
Chain of SF1 (Q13285 whole entry): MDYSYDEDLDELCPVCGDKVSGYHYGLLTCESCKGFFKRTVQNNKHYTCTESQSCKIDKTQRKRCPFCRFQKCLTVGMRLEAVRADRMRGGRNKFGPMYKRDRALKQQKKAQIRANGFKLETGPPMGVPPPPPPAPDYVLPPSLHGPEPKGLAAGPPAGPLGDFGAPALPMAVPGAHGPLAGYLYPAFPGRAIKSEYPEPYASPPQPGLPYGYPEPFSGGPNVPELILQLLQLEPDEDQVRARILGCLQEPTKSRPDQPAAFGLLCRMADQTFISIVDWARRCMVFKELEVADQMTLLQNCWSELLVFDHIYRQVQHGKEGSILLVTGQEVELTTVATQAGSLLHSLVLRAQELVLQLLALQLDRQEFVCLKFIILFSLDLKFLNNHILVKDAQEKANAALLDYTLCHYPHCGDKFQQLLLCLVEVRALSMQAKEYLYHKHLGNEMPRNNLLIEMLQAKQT

| Molecule | ABC1 mRNA induction [1] [fold] | increase in luciferase activity [2] [fold] | hABC1 promoter activity compared to basal conditions (hABC1 promoter [3]; RAW 264.7 cells, 24 h) | upregulation of the hABC1 promoter (hABC1 promoter [4]) [fold] | hABC1 promoter induction (summary statement) (hABC1 promoter [3]) [fold] | activator of LXR / LXR-RXR (LXR) | activator of SF1 (SF1) | other results |
| --- | --- | --- | --- | --- | --- | --- | --- | --- |
| 9-cis retinoic acid [9CRA] | 2 | 24 | – | – | – | – | – | – |
| CC(C)CCC[C@@H](C)[C@H]1CC[C@H]2[C@@H]3C(=O)C=C4C[C@@H](O)CC[C@]4(C)[C@H]3CC[C@]12C [7-KCh, 7-ketocholesterol] | – | – | No significant effect; also recorded: poor activator | – | – | – | – | hABC1 promoter activity compared to 9CRA alone (hABC1 promoter [3]; RAW 264.7 cells, sterol in combination with 9CRA (10 μM each), 24 h): 2 fold |
| CC1=C(/C=C/C(C)=C\C=C\C(C)=C\C(=O)O)C(C)(C)CCC1 [9CRA, 9-cis retinoic acid] | – | – | 8 fold | 3.5 | 8 | – | – | activity compared to non-transfected cells ([2]; LXR transfected): no further increase in activity; effect on hABC1 promoter activity with transfected receptors (hABC1 promoter [4]; 293 cells transfected with LXRα/hRXRα): no additional effect |
| CC(C)CC[C@@H](O)[C@@H](C)[C@H]1CC[C@H]2[C@@H]3CC=C4C[C@@H](O)CC[C@]4(C)[C@H]3CC[C@]12C [22(R)-HCh, 22(R)-hydroxycholesterol] | 2 | 14 | 7 fold | 4.5 | 7 | good activator | poor activator | transactivation of the hABC1 promoter compared to the control with no receptor (hABC1 promoter [5]; CV-1 cells cotransfected with hRXRα/LXRα): 6 fold; transactivation of the hABC1 promoter compared to the control with no receptor (hABC1 promoter [5]; CV-1 cells cotransfected with hRXRα/LXRβ): 8 fold; activation of the hABC1 promoter (hABC1 promoter [5]; CV-1 cells without transfected receptors): 4 fold |
| C[C@H](CCCC(C)(C)O)[C@H]1CC[C@H]2[C@@H]3CC=C4C[C@@H](O)CC[C@]4(C)[C@H]3CC[C@]12C [25-HCh, 25-hydroxycholesterol] | – | – | 1.5 fold | – | – | poor activator | good activator | – |
| C[C@@H](CO)CCC[C@@H](C)[C@H]1CC[C@H]2[C@@H]3CC=C4C[C@@H](O)CC[C@]4(C)[C@H]3CC[C@]12C [27-HCh] | – | – | – | – | – | relatively poor activator | – | – |
